Test results as given in article PMC9574050, “Design, synthesis, and insecticidal activity of a novel series of flupyrimin analogs bearing 1-aryl-1H-pyrazol-4-yl subunits” (Frontiers in Chemistry, 2022).
Values joined by “and” are separate entries in the source; they are usually repeats but may differ in a detail not shown here. Equal entries are not always repeated. Where two headings read alike, the source gives them in different places.

Legend:
Assay type in all cases: in vivo
[1] = system: honeybees (Apis mellifera); experiment: Bee acute oral toxicity; details: for LD50 / Mortality / Toxicity level: Oral toxicity; for LD50 oral toxicity: adult bees, time not stated
Procedure: (§1) The test bees were Italian bees (Apis mellifera), and the newly born adult worker bees (<24 h) were selected for drug drip treatment. Weigh 50 mg of test substance FLP and fully dissolve it in DMSO to obtain 10 × 10^4 mg A.I./L of stock liquid medicine; dissolve B4 fully in DMSO and fix the volume to a 1-ml volumetric flask to obtain 11.6 × 10^4 mg A.I./L stock solution.
Oral toxicity. Before the formal experiment, a pre-experiment was carried out. According to the formal experimental conditions, three to four dose groups were set at large intervals to observe the death of bees between 24 and 48 h and determine the linear range of the lethal effect of drugs on bees. According to the pre-test results, determine the concentration range of the formal test and set five to seven test dose groups. Starve bees for 2 h before being infected, and then eliminate bees that are dying or have abnormal behaviors; put 200 μL of test liquid medicine in the feeding tube, and after the liquid medicine is consumed (within 6 h), take out the feeder to measure the weight of the food that has not been consumed. Then, the bees were fed with sucrose solution without test samples. Cultivate in the dark. At the same time, feeding 50% sucrose solution as a blank control, the treatment group and the control group were set up with three replicates, and 20 bees were used in each replicate. According to the results of the pre-experiment, if the toxicity of the drug to bees is low, the upper limit dose of 100 μg a.i./bee is set for the limit test of bees, that is, when the tested substance reaches 100 μg a.i./bee, no bees die, so there is no need to continue the test. If the solubility of the test substance is less than 100 μg a. i./bee, the maximum solubility is adopted as the upper limit concentration. The test results were examined at 24 and 48 h, respectively, and the number of deaths and poisoning symptoms were recorded. The standard of death is touching the bee's body, and when it can't crawl, it is judged as death.
(§2) Statistical analysis. Using the statistical software SPSS16.0, the LD50 value and 95% confidence limit of the half lethal dose of the sample to bees were obtained by regression statistical analysis with the probit analysis method.

Nilaparvata lugens = experiment: Insecticidal activity against Nilaparvata lugens (Potter spray tower); details: 24 h, read-out: Mortality rate (%) N. lugens
Excerpt: (§3) Preparation of test agent. Dissolve accurately weighed tested compound in DMF to prepare 1% mother liquor, and then dilute it with distilled water containing 0.1% Tween-80 to corresponding concentrations for later use.
Insecticidal activity against Nilaparvata lugens ([Ghareeb et al., 2021]). The seedlings with two leaves and one heart were placed in a Petri dish with a bottom diameter of 3 cm and covered with white sand. After the 3rd instar nymphae of N. lugens were stunned by CO2, about 15 nymphae were received in each dish, and then 2.5 ml of the tested agent was sprayed with Potter spray tower. The mortality of N. lugens was investigated 1 day after the treatment. Each treatment was repeated three times, and DMF without the tested compound was used as a blank control.
(§4) The insecticidal activities of the test compounds against the abovementioned five insects were calculated by the following formula: P1=(K/N)×100, (1) P2=(Pt−P0)/(1−P0)×100, (2) where P1 is the mortality rate; K is the dead insect number; N is the total number of experimental insects; P2 is the corrected mortality rate; Pt is the mortality rate of treatment; P0 is the mortality rate of CK. If the mortality rate of CK is less than 5%, without the required correction, and if the mortality rate of CK is between 5 and 20%, P2 should be calculated according to formula II.

Helicoverpa armigera = experiment: Insecticidal activity against Helicoverpa armigera (soaking method); details: for mortality at 400 µg/mL: Helicoverpa armigera, 48 h, read-out: Mortality rate (%) H. armigera
Excerpt: as §3
Insecticidal activity against Helicoverpa armigera. The soaking method was adopted ([Yang et al., 2022]). After soaking a proper amount of corn leaves for 10 s, they were placed in a plastic Petri dish with filter paper and dried naturally in the shade. Ten larvae of the 2nd instar H. armigera were attached to each dish and placed in an observation room at 26°C with light (16/8 h). The result was counted 2 days later, and the no-response insect body when it was lightly touched with a brush was regarded as dead. Each treatment was repeated 3 times, and DMF without the tested compound was used as a blank control.
as §4

Plutella xylostella = experiment: Insecticidal activity against Plutella xylostella (soaking method); details: for mortality at 100 µg/mL / mortality at 400 µg/mL / mortality at 25 µg/mL: Plutella xylostella, 48 h, read-out: Mortality rate (%) P. xylostella
Excerpt: as §3
Insecticidal activity against Plutella xylostella ([Yang et al., 2021]). The soaking method was adopted. After soaking a proper amount of radish leaves for 10 s, it was placed in a plastic Petri dish with filter paper and dried naturally in the shade. Each dish was inoculated with 10 2nd instar P. xylostella larvae and placed in an observation room at 22°C with light (16/8 h). The result was counted 2 days later, and the no-response insect body when it was lightly touched with a brush was regarded as dead. Each treatment was repeated three times, and DMF without the tested compound was used as a blank control.
as §4

Chilo suppressalis = experiment: Insecticidal activity against Chilo suppressalis (soaking method); details: 96 h, read-out: Mortality rate (%) C. suppressalis
Excerpt: as §3
Insecticidal activity against Chilo suppressalis ([Huang et al., 2022]). The soaking method was adopted. The Zizania latifolia slices were soaked in a tested solution for 10 s, then taken out, and placed in a plastic Petri dish with filter paper to naturally dry in the shade. […] The result was counted 4 days later, and the no-response insect body when it was lightly touched with a brush was regarded as dead. Each treatment was repeated three times, and DMF without the tested compound was used as a blank control.
as §4

[2] = system: honeybees (Apis mellifera); experiment: Bee contact toxicity; details: for LD50 / Toxicity level / Mortality: Contact toxicity; for Mortality: 1 μL of 10 × 10^4 mg A.I./L per bee; for LD50 contact toxicity: adult bees, time not stated
Procedure: as §1
Contact toxicity. 10 × 10^4 mg A.I./L of mother liquor was used as the test liquid, and 1 μL of the solution containing the tested drug was dripped onto the back of the front chest of bees by a micro-dropper. Then, bees were put into a beekeeping box and cultured in dark conditions at a temperature of 30 ± 1°C and relative humidity of 50%, with a 50% sucrose solution as food for 48 h. Taking the solvent drip bees without the drug to be tested as the blank control, the treatment group and the control group were set up with three replicates, and 10 bees were used in each replicate.
as §2

Aphis craccivora = experiment: Insecticidal activity against Aphis craccivora (Potter spray tower); details: read-out: Mortality rate (%) A. craccivora
Procedure: as §3
Insecticidal activity against Aphis craccivora ([Liu et al., 2022]). About 30 nymphs of alfalfa aphid were placed on a horsebean leaf dish, and then 2.5 ml of the tested agent was sprayed with Potter spray tower. After treatment, they were cultured in an observation room at 20–22°C. The result was counted 24 h later, and the no-response insect body when it was lightly touched with tweezers was regarded as dead. Each treatment was repeated three times, and DMF without the tested compound was used as a blank control.
as §4

[3] = 400 μg/mL, 3rd instar nymphae, 1 day after treatment
[4] = 400 μg/mL, 2nd instar larvae, counted 2 days later
[5] = 100 μg/mL, 2nd instar larvae, counted 2 days later
[6] = 400 μg/mL, 3rd instar larvae, counted 4 days later
[7] = 100 μg/mL, 3rd instar nymphae, 1 day after treatment
[8] = 25 μg/mL, 2nd instar larvae, counted 2 days later

Structure (SMILES)	LD50 oral toxicity [1]	mortality at 400 µg/mL (Nilaparvata lugens; [3])	mortality at 400 µg/mL (Helicoverpa armigera; [4])	mortality at 100 µg/mL (Plutella xylostella; [5])	mortality at 400 µg/mL (Plutella xylostella; [4])	mortality at 400 µg/mL (Chilo suppressalis; [6])	LD50 ([2]; 24 h)	Toxicity level ([2]; 24 h)	Mortality ([2]; 24 h)	Toxicity level ([2]; 48 h)	Mortality ([2]; 48 h)	LD50 contact toxicity [2]	mortality at 400 µg/mL (Aphis craccivora; 400 μg/mL, counted 24 h later)	mortality at 100 µg/mL (Nilaparvata lugens; [7])	also measured
COCC(=O)/N=c1\ccccn1Cc1cnn(-c2ccc(Cl)cc2)c1C(F)(F)F [Compound B4, (E)-N-(1-((1-(4-chlorophenyl)-5-(trifluoromethyl)-1H-pyrazol-4-yl)methyl)pyridin-2(1H)-ylidene)-2-methoxyacetamide]	> 11.0 μg a.i./bee	0%	0%	96.7%	100%	0%	>11.0 μg a.i./bee	Low toxicity	3	Low toxicity	3	> 11.0 μg a.i./bee	0%		LD50 ([1]; 24 h): >11.0 μg a.i./bee; Mortality ([1]; 24 h): 15; Toxicity level ([1]; 24 h): Low toxicity; LD50 ([1]; 48 h): >11.0 μg a.i./bee; Mortality ([1]; 48 h): 17; Toxicity level ([1]; 48 h): Low toxicity; LD50 ([2]; 48 h): >11.0 μg a.i./bee
Cn1cc(C(=O)/N=c2\ccccn2Cc2cnn(-c3cccc(Cl)c3)c2C(F)F)c(C(F)F)n1 [Compound D6, (E)-N-(1-((1-(3-chlorophenyl)-5-(difluoromethyl)-1H-pyrazol-4-yl)methyl)pyridin-2(1H)-ylidene)-3-(difluoromethyl)-1-methyl-1H-pyrazole-4-carboxamide]		100%	0%	100%	100%	0%							0%	0%	mortality at 25 µg/mL (Plutella xylostella; [8]): 56.7%
Cn1cc(C(=O)/N=c2\ccccn2Cc2cnn(-c3ccc(F)cc3)c2C(F)F)c(C(F)F)n1 [Compound D7, (E)-3-(difluoromethyl)-N-(1-((5-(difluoromethyl)-1-(4-fluorophenyl)-1H-pyrazol-4-yl)methyl)pyridin-2(1H)-ylidene)-1-methyl-1H-pyrazole-4-carboxamide]		100%	0%		73.3%	0%							0%	0%	
O=C(N=c1ccccn1Cc1ccc(Cl)nc1)C(F)(F)F [FLP, flupyrimin]	> 11.0 μg a.i./bee						>11.0 μg a.i./bee	Low toxicity	12 and 9	Low toxicity	13 and 20	> 11.0 μg a.i./bee			mortality at 100 µg/mL (Nilaparvata lugens): 100%; mortality at 400 µg/mL (Nilaparvata lugens): 100%; Mortality rate (%) H. armigera (Helicoverpa armigera; [4]): inactive; mortality at 400 µg/mL (Helicoverpa armigera): 0%; Mortality rate (%) P. xylostella (Plutella xylostella; [8]): no insecticidal activity; mortality at 25 µg/mL (Plutella xylostella): 0%; mortality at 100 µg/mL (Plutella xylostella): 0%; mortality at 400 µg/mL (Plutella xylostella): 100%; mortality at 400 µg/mL (Chilo suppressalis): 100%; mortality at 100 µg/mL (Aphis craccivora; 24 h): 100%; mortality at 400 µg/mL (Aphis craccivora; 24 h): 100%
